In PMC7466159, “Anti-Metastasis Fascin Inhibitors Decrease the Growth of Specific Subtypes of Cancers” (Cancers, 2020):

Columns and labels:
[1] = tested on: NCI-H660 human neuroendocrine prostate cancer cells; experiment: Boyden chamber cell migration assay; type: cell-based; conditions: about twenty hours, 10% serum, read-out: IC50, tumor cell migration
Description: Cells were stained with crystal violet staining solution, and cells on the upper side of the insert were removed with a cotton swab.

HT lymphoma cells = experiment: HT lymphoma model in NSG mice (tumor growth, overall survival); type: in vivo; conditions: 300 mg/kg gavage once a day 5 days every week from day 28, vs control
Experimental: HT cells (5 × 10^6) suspended in PBS-matrigel (v/v, 1: 1) were subcutaneously injected into NSG mice on day 0. Starting on day 28, NP-G2-044 or the control solvent was given once a day for 5 days every week by gavage at 300 mg kg^−1 per mouse until their death.

MDA-MB-468 tumor cells = experiment: MDA-MB-468 breast cancer model in NSG mice (tumor growth, overall survival); type: in vivo; conditions: treatment from Day 14, compared with the control group
Experimental: (§1) MDA-MB-468 cells and HCC38 cells grew in the presence of EGF with or without NP-G2-044. […] Finally, we used the animal model to investigate whether the primary tumor growth of MDA-MB-468 cells was sensitive to fascin inhibitors. MDA-MB-468 tumor cells were implanted into the mammary gland of NSG mice, and these mice were randomly divided into four groups. One group of mice was used as control (Figure 6I). The second group of mice was treated with the fascin inhibitor NP-G2-044 (Figure 6I). The third group was treated with the EGFR inhibitor gefitnib (Figure 6I), and the fourth group was treated with the combination of NP-G2-044 + gefitinib (Figure 6I). […] We dissected the primary tumor tissues 55 days after the tumor implantation from some mice. […] Furthermore, the overall survival of the mice was analyzed (Figure 6K).
For the breast cancer model, MDA-MB-468 cells (5 × 10^6) suspended in PBS-matrigel (v/v, 1:1) were injected subcutaneously into the abdominal mammary gland area of female NSG mice on Day 0 as previously described. Starting on Day 14, NP-G2-044 was given once a day for 5 days every week by gavage at 300 mg kg^−1 per mouse until their death. Starting on Day 14, gefitinib was given twice weekly by gavage at 150 mg kg^−1 per mouse until their death. The control solvent was given once a day for 5 days every week by gavage according to their body weight until their death. […] The primary tumor volume was calculated as length × width^2 ×π/6.

[2] = tested on: 4T1 triple-negative breast cancer cells; design: method as in PMID 26081695, PMID 27071719; conditions: 4T1 cells; cited from earlier work
[3] = tested on: phosphorylation of ERK, PLCγ1, and PI3K in HCC38 cells; experiment: EGFR signaling pathway Western blotting, HCC38; type: cell-based; conditions: 10 ng/mL EGF, 30 µM, 24 h
Experimental: as §1
(§2) For the cell signal pathway analysis of breast cancer cells, HCC38 and MDA-MB-468 cells were plated in a 10-cm dish. After culture for 24 h, cells were incubated in serum-free medium for 16 h.

[4] = tested on: KARPAS 299 lymphoma cells; experiment: Cell growth sensitivity, KARPAS 299; type: cell-based
[5] = tested on: phosphorylation of ERK, PLCγ1, and PI3K in MDA-MB-468 cells; experiment: EGFR signaling pathway Western blotting, MDA-MB-468; type: cell-based; conditions: 10 ng/mL EGF, 30 µM, 24 h
Experimental: as §1, §2

U2932 lymphoma cells = experiment: U2932 lymphoma model in NSG mice (tumor growth, liver metastasis, overall survival); type: in vivo
Experimental: For the lymphoma model, U2932 cells (5 × 10^6) suspended in PBS-matrigel (v/v, 1:1) were subcutaneously injected into NSG mice on Say 0. Starting on Day 49, NP-G2-044 was given once a day for 5 days every week by gavage at 300 mg kg^−1 per mouse until their death. Starting on Day 49, LY2409881 was given once weekly by intraperitoneal injection at 50 mg kg^−1 per mouse for 8 times. The control solvent was given according to their body weights until their death. […] The primary tumors and livers shown in the figure were dissected on Day 67.

[6] = tested on: BT-20 triple-negative breast cancer cells; experiment: Cell growth assay, BT-20; type: cell-based; conditions: BT-20 cells in culture, 10% serum
[7] = tested on: MDA-MB-231 triple-negative breast cancer cells; design: method as in PMID 26081695, PMID 27071719; conditions: MDA-MB-231 cells; cited from earlier work
[8] = tested on: NF-κB nuclear translocation in Ly10 cells; experiment: p65 (NF-κB) nuclear translocation, Western blotting, Ly10; type: cell-based; conditions: 30 µM, 16 h
HT cells = experiment: Cell growth assay, HT; conditions: HT cells in culture, 4 days
Experimental: (§3) We then extended our search to other types of lymphoma cells. […] Both U2932 and Ly10 cells are ABC-subtype DLBCLs, and HT cells are diffuse mixed lymphoma.
(§4) For NP-G2-044 dose-dependent studies, 1 × 10^5 Ly10, U2932, or HT cells were seeded in a 12- or 24-well plate on day 0. A total of 1, 3, 10, 30, or 100 μM NP-G2-044 or control solvent was added to the plates. Cells were collected and counted on day 4. For time-dependent studies, 1 × 10^5 Ly10, U2932, or HT cells were seeded in a 12- or 24-well plate on day 0. A total of 30 μM NP-G2-044, 5 μM LY2409881, 30 μM NP-G2-044 plus 5 μM LY2409881, or control solvent was added to the plates. Cells were collected and counted on Days 2 and 4. […] The cell growth index was expressed as the fold changes of cell numbers over the starting cell number. For these assays, the old medium was changed with a fresh medium containing the control solvent or the inhibitors every two days.

U2932 cells = experiment: Cell growth assay, U2932; conditions: U2932 cells in culture, 4 days
Experimental: as §3, §4

Ly10 cells = experiment: Soft-agar colony formation assay, Ly10; type: cell-based; conditions: 14 days, dosage-dependent
Experimental: A total of 1 × or 2 ×10^4 cells were suspended in 0.5 mL of 0.3% low melting point agar (Merck KGaA, Darmstadt, Germany) in RPMI-1640 or DMEM containing 10% FBS and control solvent or the inhibitors. This suspension was overlaid on pre-solidified with 0.6% agar in the same medium in 24-well plates as previously described. Normal growth medium containing control solvent or the inhibitors was gently layered over the cultures every 4 days for 14 days. The colonies were stained with 0.1% crystal violet for 1 h at room temperature and counted under a microscope.

[9] = treatment from Day 49, vs control group

## Cc1occc1C(=O)Nc1nn(Cc2ccc(C(F)(F)F)cc2)c2ccccc12 [NP-G2-044]
[1]
  IC50: 3 to 5 µM
HT lymphoma cells
  primary tumor growth: decreased
HT lymphoma cells; logrank p = 0.002
  overall survival: increased
MDA-MB-468 tumor cells
  growth of primary tumors: reduced the growth of primary tumors to the same degree
  increase of median overall survival: ~ 50%
[2]
  induction of apoptosis: did not induce the apoptosis
[3]
  phosphorylation of ERK, PLCγ1, and PI3K: affected
[4]
  growth sensitivity: insensitive
[5]
  phosphorylation of ERK, PLCγ1, and PI3K: affected
U2932 lymphoma cells; livers dissected on Day 67
  metastasis of implanted lymphoma cells to the liver: blocked the metastasis to the liver
U2932 lymphoma cells; [9]
  increase of median overall survival: 79%
  overall survival: increased
  primary tumor growth: decreased
[6]
  growth sensitivity: sensitive
[7]
  induction of apoptosis: did not induce the apoptosis
[8]
  nuclear translocation of the p65 subunits: also observed
HT cells
  effect on cell growth: inhibitory effect
U2932 cells
  effect on cell growth: inhibitory effect
Ly10 cells
  number of growing colonies: decreased the number of growing colonies
